Tests used:
[1] = tested on: HEK293 cells
[2] = spontaneous isomerisation at room temperature monitored by HPLC; type: physicochemical
Source text: The main difference between the spectra is the hypsochromic shift of the Compound 2 peak maxima of about 3 nm.

| Compound | oxidative metabolism [1] | elongation to a 22 carbon fatty acid ([1]; compared with AA or EPA) | cellular uptake and assimilation into complex lipids ([1]; fractionation of organic extracts on aminopropyl columns) | stability (geometrical isomerisation) [2] |
| --- | --- | --- | --- | --- |
| CC/C=C\C/C=C\C/C=C/C=C/C=C/C=C/CCCC(=O)O [5E,7E,9E,11E,14Z,17Z-eicosahexaenoic acid] | appears to be oxidized through a monooxygenation system in HEK293 cells, and the products released to the medium | appeared not to be elongated efficiently to a 22 carbon fatty acid | taken up by the cells and assimilated into complex lipids |  |
| CC/C=C\C/C=C\C\C=C/C=C/C=C/C=C/CCCC(=O)O [Compound 1, 5E,7E,9E,11Z,14Z,17Z-eicosahexaenoic acid] |  |  |  | spontaneous room temperature conversion of Compound 1 to Compound 2 |

Source: patent publication US7091369B2, “Synthesis of polyconjugated fatty acids” (Board of Trustees Operating Michigan State University, priority 2003, dated 2006)
